By Kd is commonly meant the constant that tells how readily two partners part at equilibrium. A lower Kd goes with tighter binding.

Here are results for one molecule from paper PMC6445106, “Structural and biochemical evidence supporting poly ADP-ribosylation in the bacterium Deinococcus radiodurans” (Nature Communications, 2019).

Experiment [1] has as its target T1, DrPARG (Deinococcus radiodurans, UniProt Q9RZM4).
T1 construct: gene DR_B0099, pET28a, E. coli BL21(DE3); N-terminal His-tag cut with thrombin, GSHM left at N terminus; monomer, Mr 32 kDa; residues 100-110 GGGFLGGAQAQ
T1 sequence (Q9RZM4 1-285): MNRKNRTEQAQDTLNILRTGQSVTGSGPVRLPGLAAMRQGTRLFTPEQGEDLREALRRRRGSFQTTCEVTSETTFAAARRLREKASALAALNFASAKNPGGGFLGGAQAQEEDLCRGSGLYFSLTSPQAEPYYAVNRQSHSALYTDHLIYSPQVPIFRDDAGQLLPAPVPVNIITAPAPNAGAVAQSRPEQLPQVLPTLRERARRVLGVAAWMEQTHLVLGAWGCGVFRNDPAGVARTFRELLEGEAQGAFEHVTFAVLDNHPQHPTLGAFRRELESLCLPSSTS
In words: CD thermal denaturation at […] nm. The format is binding. The conditions noted are these: 10 µM protein, 30 µM ADP-ribose, 20 mM phosphate pH 7.5; printed as "increased Tm by 46.5 °C", read as Tm of complex.

Experiment [2] deals with T2, DrPARG (Deinococcus radiodurans, UniProt Q9RZM4, T267K).
T2 construct: gene DR_B0099, pET28a, E. coli BL21(DE3); N-terminal His-tag cut with thrombin, GSHM left at N terminus; monomer, Mr 32 kDa; residues 100-110 GGGFLGGAQAQ
T2 sequence (Q9RZM4 entry or part of it T267K): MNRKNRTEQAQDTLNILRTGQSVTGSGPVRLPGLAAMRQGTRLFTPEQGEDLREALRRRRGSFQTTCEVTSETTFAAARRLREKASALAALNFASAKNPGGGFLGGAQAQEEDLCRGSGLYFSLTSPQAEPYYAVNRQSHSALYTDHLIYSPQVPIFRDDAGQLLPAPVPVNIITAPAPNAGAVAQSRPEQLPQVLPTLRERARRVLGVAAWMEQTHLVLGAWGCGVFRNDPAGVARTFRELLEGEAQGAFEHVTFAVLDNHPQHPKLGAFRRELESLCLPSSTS
Description: isothermal titration calorimetry. As to conditions: 25 °C, 20 mM Tris-HCl pH 7.0, 100 mM NaCl; independent binding model. From the text:
(§1) isothermal titration calorimetry on DrPARG
A general note: In ITC the heat of successive injections is recorded.

Experiment [3] deals with T1, DrPARG. Description: isothermal titration calorimetry. The conditions noted are these: 25 °C, 20 mM Tris-HCl pH 7.0, 100 mM NaCl; independent binding model; complex also as PDB 5ZDC, 5ZDD, 5ZDE.
From the text: as §1

Experiment [4] deals with T3, DrPARG (Deinococcus radiodurans, UniProt Q9RZM4, T267R).
T3 construct: gene DR_B0099, pET28a, E. coli BL21(DE3); N-terminal His-tag cut with thrombin, GSHM left at N terminus; monomer, Mr 32 kDa; residues 100-110 GGGFLGGAQAQ
T3 sequence (Q9RZM4 entry or part of it T267R): as the sequence (Q9RZM4 entry or part of it T267K) above, with K267R counted along it
Description: isothermal titration calorimetry. The conditions noted are these: 25 °C, 20 mM Tris-HCl pH 7.0, 100 mM NaCl; independent binding model.
From the text: as §1

In experiment [5] the target is T4, DrPARG (Deinococcus radiodurans, UniProt Q9RZM4, E112A).
T4 construct: gene DR_B0099, pET28a, E. coli BL21(DE3); N-terminal His-tag cut with thrombin, GSHM left at N terminus; monomer, Mr 32 kDa; residues 100-110 GGGFLGGAQAQ
T4 sequence (Q9RZM4 entry or part of it E112A): as the sequence (Q9RZM4 entry or part of it T267K) above, with E112A, K267T counted along it
In words: isothermal titration calorimetry. As to conditions: 25 °C, 20 mM Tris-HCl pH 7.0, 100 mM NaCl; independent binding model.
From the text: as §1

With `Nc1ncnc2c1ncn2[C@@H]1O[C@H](COP(=O)(O)OP(=O)(O)OC[C@H]2OC(O)[C@H](O)[C@@H]2O)[C@@H](O)[C@H]1O` (some centres unmarked) [ADP-ribose], the “Tm with ligand (apo 45.2)” value in experiment [1] turned out to be 46.5 °C. Moreover, the dissociation constant Kd in experiment [2] came out at 1980 ± 20 nM; in experiment [3], 1780 ± 50 nM; in experiment [4], 3760 ± 470 nM; in experiment [5] it was 2020 ± 70 nM.
